{
  "source": "paper PMC10175255",
  "about": "“The cell wall lipoprotein CD1687 acts as a DNA binding protein during deoxycholate-induced biofilm formation in Clostridioides difficile” (NPJ Biofilms and Microbiomes, 2023)",
  "target": "T1, CD1687 (Clostridioides difficile, UniProt Q186P2)",
  "T1 construct": "gene CD630_16870; signal peptide removed, hexahistidine tag kept, expressed in E. coli Bli5 from a pET20-derived plasmid, Ni-NTA purified",
  "T1 sequence (Q186P2 entry or part of it)": "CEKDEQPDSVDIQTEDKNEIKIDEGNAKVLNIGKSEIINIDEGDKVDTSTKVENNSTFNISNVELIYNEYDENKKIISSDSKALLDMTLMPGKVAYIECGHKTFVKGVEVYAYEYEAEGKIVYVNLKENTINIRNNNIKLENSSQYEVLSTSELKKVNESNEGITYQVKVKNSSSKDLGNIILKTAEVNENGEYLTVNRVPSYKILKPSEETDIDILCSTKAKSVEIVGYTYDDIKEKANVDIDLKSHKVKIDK",
  "assay": "surface plasmon resonance (Biacore T200), His-tagged protein captured on Ni-NTA chip",
  "format": "binding",
  "data": [
    {"smiles": "C[C@H](CCC(=O)O)[C@H]1CC[C@H]2[C@@H]3CC[C@@H]4C[C@H](O)CC[C@]4(C)[C@H]3C[C@H](O)[C@]12C", "note": "[deoxycholate]", "values": [
      {"measurement": "Kd", "value": "1650 ± 580", "unit": "µM"}
    ]}
  ]
}
